# System: Ucp1
# Assay: UCP1 luciferase assay (Ucp1 up-regulation in differentiated inguinal adipocytes of Ucp1-luciferase knock-in mice)
# Format: cell-based
# Settings: Mus musculus, Adipocyte, 48 h; at 0.3 μM; 2 days treatment; luciferase activity; read-out: Ucp1 activation fold/corresponding concentration
# Description: TEST EXAMPLE 1 UCP1 Luciferase Assay
# Evaluating Compounds that Induce Ucp1 Up-Regulation
# Ucp1-luciferase knock-in mice will be housed in cages and fed on standard chow diets (the detailed procedures please see reference 14). The 8-week-old mice will be killed by the cervical dislocation and put into 75% alcohol for 5 minutes. The inguinal adipose tissue will be dissected out and transferred to the three 10-cm petri dishes and washed with PBS for three times. The adipose tissue will be dissected and minced on a 10-cm petri dish for several minutes and then pipetted into 20 ml 0.1% collagenase solution in 50 ml conical tubes and digested at 37° C. for 1 hour. Next, 20 ml culture medium will be added to terminate the digestion and centrifuged for 10 minutes at 1000 rpm respectively. The supernatants will be removed and the pellets re-suspended in 10 mL culture medium and plated into 10-cm plates. The cells will be left to adhere to the plates overnight and the culture medium will be changed every other day. The confluent cells will be trypsinized, counted and plated to 24-well plate (5×10^4 cells/well). The cells will be washed and re-fed the next day (as day −2). Two days later (day 0), the cells will usually become confluent and be induced to differentiate with MDIR medium. On day 2, the medium will be changed to IR medium and re-fed every 2 days. Complete differentiation is usually achieved by day 10. On day 10, the medium will be changed to the culture medium of 10% FBS/DMEM with indicated drugs along with the positive and negative controls for 2 days. The media will be removed and the cells washed with 1 ml PBS per well three times. Then 100 μl lysis buffer will be used to lyse the cells at 4° C. for 1 hour. 30 μl culture medium, 30 μl cell lysates and 60 μl Steady-Glo® Reagent were added to a well of 96-well-plate and the luminescence will be measured using a luminometer. The protein concentration will be determined using 20 μl cell lysates and specific activity of luciferase will be tabulated and data analyzed.
row,Structure (SMILES),fold induction at 0.3 µM
1,"c1ccc(Nc2nc(-c3c[nH]c4ccccc34)cs2)nc1 [Compound 7, 4-(1H-indol-3-yl)-N-(pyridin-2-yl)thiazol-2-amine]",1.2
2,"COc1ccc(-c2csc(Nc3ccccn3)n2)c(OC)c1 [Compound 15, 4-(2,4-dimethoxyphenyl)-N-(pyridin-2-yl)thiazol-2-amine]",1.4
3,"COc1ccc(-c2csc(NC(C)=O)n2)cc1OC [Compound 29, N-(4-(3,4-dimethoxyphenyl)thiazol-2-yl)acetamide]",1.2
4,"O=C(O)COc1ccc(-c2csc(Nc3ccccn3)n2)cc1 [Compound 45, 2-(4-(2-(pyridin-2-ylamino)thiazol-4-yl)phenoxy)acetic acid]",1.3

# Same assay, conditions: Mus musculus, Adipocyte, 48 h; at 1 μM; 2 days treatment; luciferase activity; read-out: Ucp1 activation fold/corresponding concentration
row,Structure (SMILES),fold induction at 1 µM
1,"COc1ccc(-c2csc(Nc3cc(C)ccn3)n2)cc1OC [Compound 2, 4-(3,4-dimethoxyphenyl)-N-(4-methylpyridin-2-yl)thiazol-2-amine]",1.1
2,"COc1cccc(-c2csc(Nc3ccccn3)n2)c1 [Compound 3, 4-(3-methoxyphenyl)-N-(pyridin-2-yl)thiazol-2-amine]",2.8
3,"COc1ccc(-c2csc(Nc3cc4ccccc4cn3)n2)cc1OC [Compound 6, 4-(3,4-dimethoxyphenyl)-N-(isoquinolin-3-yl)thiazol-2-amine]",1.2
4,"c1ccc(Nc2nc(-c3cccnc3)cs2)nc1 [Compound 9, N-(pyridin-2-yl)-4-(pyridin-3-yl)thiazol-2-amine]",3.6
5,"COc1ccc(-c2csc(Nc3ccc(C)cn3)n2)cc1OC [Compound 11, 4-(3,4-dimethoxyphenyl)-N-(5-methylpyridin-2-yl)thiazol-2-amine]",2
6,"COc1ccc(-c2csc(Nc3ncccc3C)n2)cc1OC [Compound 12, 4-(3,4-dimethoxyphenyl)-N-(3-methylpyridin-2-yl)thiazol-2-amine]",1.2
7,"COc1cc(-c2csc(Nc3ccccn3)n2)cc(OC)c1OC [Compound 17, N-(pyridin-2-yl)-4-(3,4,5-trimethoxyphenyl)thiazol-2-amine]",1.9
8,"COc1ccc(-c2nc(Nc3ccccn3)sc2C)cc1OC [Compound 19, 4-(3,4-dimethoxyphenyl)-5-methyl-N-(pyridin-2-yl)thiazol-2-amine]",1.6
9,"Fc1ccc(-c2csc(Nc3ccccn3)n2)cc1 [Compound 22, 4-(4-fluorophenyl)-N-(pyridin-2-yl)thiazol-2-amine]",3.9
10,"c1ccc(Nc2nc(-c3ccccn3)cs2)nc1 [Compound 27, N,4-di(pyridin-2-yl)thiazol-2-amine]",3.3
11,"COc1ccc(-c2csc(NC(=O)c3ccccc3)n2)cc1OC [Compound 30, N-(4-(3,4-dimethoxyphenyl)thiazol-2-yl)benzamide]",1.1
12,"CNc1nc(-c2ccc(OC)c(OC)c2)cs1 [Compound 31, 4-(3,4-dimethoxyphenyl)-N-methylthiazol-2-amine]",1.1
13,"O=[N+]([O-])c1ccc(-c2csc(Nc3ccccn3)n2)cc1 [Compound 34, 4-(4-nitrophenyl)-N-(pyridin-2-yl)thiazol-2-amine]",3.8
14,"Nc1ccc(-c2csc(Nc3ccccn3)n2)cc1 [Compound 35, 4-(4-aminophenyl)-N-(pyridin-2-yl)thiazol-2-amine]",3.7
15,"CC(=O)Nc1ccc(-c2csc(Nc3ccccn3)n2)cc1 [Compound 36, N-(4-(2-(pyridin-2-ylamino)thiazol-4-yl)phenyl)acetamide]",3.8
16,"CCCC(=O)Nc1ccc(-c2csc(Nc3ccccn3)n2)cc1 [Compound 39, N-(4-(2-(pyridin-2-ylamino)thiazol-4-yl)phenyl)butyramide]",3.4
17,"Oc1ccc(-c2csc(Nc3ccccn3)n2)cc1 [Compound 41, 4-(2-(pyridin-2-ylamino)thiazol-4-yl)phenol]",3.3
18,"CC(C)Oc1ccc(-c2csc(Nc3ccccn3)n2)cc1 [Compound 42, 4-(4-isopropoxyphenyl)-N-(pyridin-2-yl)thiazol-2-amine]",2
19,"CCCCOc1ccc(-c2csc(Nc3ccccn3)n2)cc1 [Compound 43, 4-(4-butoxyphenyl)-N-(pyridin-2-yl)thiazol-2-amine]",2.8

# Same assay, conditions: Mus musculus, Adipocyte, 48 h; at 3 μM; 2 days treatment; luciferase activity; read-out: Ucp1 activation fold/corresponding concentration
row,Structure (SMILES),fold induction at 3 µM
1,"c1ccc(-c2csc(Nc3ccccn3)n2)cc1 [Compound 4, 4-phenyl-N-(pyridin-2-yl)thiazol-2-amine]",4.1
2,"N#Cc1cccc(-c2csc(Nc3ccccn3)n2)c1 [Compound 5, 3-(2-(pyridin-2-ylamino)thiazol-4-yl)benzonitrile]",5.4
3,"COc1ccc(-c2csc(Nc3cccc(C)n3)n2)cc1OC [Compound 10, 4-(3,4-dimethoxyphenyl)-N-(6-methylpyridin-2-yl)thiazol-2-amine]",3.8
4,"COc1ccc(-c2csc(Nc3cc(Cl)ccn3)n2)cc1OC [Compound 13, N-(4-chloropyridin-2-yl)-4-(3,4-dimethoxyphenyl)thiazol-2-amine]",1.6
5,"COc1ccc(-c2csc(Nc3nc4ccc(C)cc4s3)n2)cc1OC [Compound 14, N-(4-(3,4-dimethoxyphenyl)thiazol-2-yl)-6-methylbenzo[d]thiazol-2-amine]",2.4
6,"CN(C)c1ccc(-c2csc(Nc3ccccn3)n2)cc1 [Compound 16, 4-(4-(dimethylamino)phenyl)-N-(pyridin-2-yl)thiazol-2-amine]",5.1
7,"COc1cc(OC)cc(-c2csc(Nc3ccccn3)n2)c1 [Compound 18, 4-(3,5-dimethoxyphenyl)-N-(pyridin-2-yl)thiazol-2-amine]",5.3
8,"COc1ccc(-c2csc(Nc3ccccc3)n2)cc1OC [Compound 20, 4-(3,4-dimethoxyphenyl)-N-phenylthiazol-2-amine]",3
9,"Cc1ccc(-c2csc(Nc3ccccn3)n2)cc1 [Compound 21, N-(pyridin-2-yl)-4-p-tolylthiazol-2-amine]",2.9
10,"FC(F)(F)Oc1ccc(-c2csc(Nc3ccccn3)n2)cc1 [Compound 23, N-(pyridin-2-yl)-4-(4-(trifluoromethoxy)phenyl)thiazol-2-amine]",4
11,"COc1ccccc1-c1csc(Nc2ccccn2)n1 [Compound 24, 4-(2-methoxyphenyl)-N-(pyridin-2-yl)thiazol-2-amine]",2.7
12,"COc1cc(Br)ccc1-c1csc(Nc2ccccn2)n1 [Compound 25, 4-(4-bromo-2-methoxyphenyl)-N-(pyridin-2-yl)thiazol-2-amine]",1.3
13,"c1ccc(Nc2nc(-c3ccncc3)cs2)nc1 [Compound 26, N-(pyridin-2-yl)-4-(pyridin-4-yl)thiazol-2-amine]",3.5
14,"Brc1cc(N2CCOCC2)ccc1-c1csc(Nc2ccccn2)n1 [Compound 28, 4-(2-bromo-4-morpholinophenyl)-N-(pyridin-2-yl)thiazol-2-amine]",3.2
15,"COc1ccc(-c2csc(NC(=O)c3ccccn3)n2)cc1OC [Compound 32, N-(4-(3,4-dimethoxyphenyl)thiazol-2-yl)picolinamide]",2.6
16,"COc1ccc(-c2csc(Nc3cccnc3)n2)cc1OC [Compound 33, 4-(3,4-dimethoxyphenyl)-N-(pyridin-3-yl)thiazol-2-amine]",2
17,"CC(C)NC(=O)Nc1ccc(-c2csc(Nc3ccccn3)n2)cc1 [Compound 37, 1-isopropyl-3-(4-(2-(pyridin-2-ylamino)thiazol-4-yl)phenyl)urea]",2
18,"CCC(=O)Nc1ccc(-c2csc(Nc3ccccn3)n2)cc1 [Compound 38, N-(4-(2-(pyridin-2-ylamino)thiazol-4-yl)phenyl)propionamide]",5
19,"Brc1ccc(-c2csc(Nc3ccccn3)n2)cc1 [Compound 40, 4-(4-bromophenyl)-N-(pyridin-2-yl)thiazol-2-amine]",3
20,"CCOC(=O)COc1ccc(-c2csc(Nc3ccccn3)n2)cc1 [Compound 44, ethyl 2-(4-(2-(pyridin-2-ylamino)thiazol-4-yl)phenoxy)acetate]",1.9
21,"O=C(COc1ccc(-c2csc(Nc3ccccn3)n2)cc1)N1CCOCC1 [Compound 46, 1-morpholino-2-(4-(2-(pyridin-2-ylamino)thiazol-4-yl)phenoxy)ethanone]",1.7
22,"CCNC(=O)COc1ccc(-c2csc(Nc3ccccn3)n2)cc1 [Compound 47, N-ethyl-2-(4-(2-(pyridin-2-ylamino)thiazol-4-yl)phenoxy)acetamide]",2.4
23,"COC(=O)c1ccc(-c2csc(Nc3ccccn3)n2)cc1 [Compound 48, methyl 4-(2-(pyridin-2-ylamino)thiazol-4-yl)benzoate]",6
